Experimental data as given in patent EP0285883A2, “Bactobolin as a prophylactic or therapeutic agent for autoimmune diseases, and as an immuno-suppressive agent” (ZAIDAN HOJIN BISEIBUTSU KAGAKU KENKYU KAI, priority 1987, dated 1988).
Where “and” joins values, the source holds several entries; their conditions need not be identical. Identical values can stand only once.

What was measured:
[1] = tested on: Acute Experimental Autoimmune Encephalomyelitis (EAE) of Rat; test: Test 1: acute EAE of rat, treatment during the induction phase; format: in vivo, rats; conditions: for Incidence of EAE Number of animals affected/Number of animals tested: 0.5 mg/Kg intraperitoneal daily, observed for 16 days after immunization; for Histologic score (±SD): treatment during the inductive phase, mean of six separate sections incl. spinal cord and brain, ratings zero to 4
Procedure: To animals (rats) as sensitized with myelin basic protein/complete Freund adjuvant (hereinafter affreviated as MBP/CFA) for immunization, 0.5 mg/kg of bactobolin was administered by intraperitoneal injection daily from the next day (Day 1) of the immunization to Day 8. This administration period corresponds approximately to the induction phase of EAE.

[2] = tested on: EAE; test: Test 2: EAE in MBP/CFA-immunized rats, treatment during the effector phase (Day 8-14); format: in vivo; conditions: for Histologic score (±SD): treatment during the effector phase, evaluated for 15 days after the immunization
Procedure: Bactobolin was administered intraperitoneally to the MBP/CFA-immunized animals (rats) during a period (Day 8-14), which was considered to correspond primarily to the effector phase of EAE, and during this period the effects of bactobolin was estimated.

[3] = tested on: EAE; test: Test 3: EAE, treatment started after onset of clinical signs; format: in vivo; conditions: 0.5 mg/Kg i.p., started on the day of the first clinical sign
Procedure: A study was conducted to determine whether the intraperitoneal administration of bactobolin made after the incidence of EAE was therapeutically effective, or not.

[4] = tested on: Passively Induced EAE; test: Test 4: passively induced EAE (transfer of precultured spleen cells); format: in vivo, rats; conditions: 0.5 mg/Kg, sacrificed Day 9 P.I.
[5] = tested on: lymph node cells; test: Test 5: lymphocyte proliferative responses of lymph node cells from treated rats (tritiated thymidine uptake); format: in vivo
Procedure: Using lymph node cells which were separately collected separately from control rats and from the bactobolin-intraperitoneally administered rats on Day 11 (the 11th day after the sensitization), the lymphocyte proliferative responses to specific antigen, as well as the response to Con A were assessed.
Note 1:- Animals belonging to Bactobolin-administered group were daily intraperitoneally with 0.5mg/kg of bactobolin from Day 1 P.I. to Day 8 P.I., and the control animals were treated with PBS. Note 2:-Lymph node cells were obtained from control and bactobolin-treated rats 11 days after the sensitization. These lymphoid cells were cultured with GPBP (10 µg/mℓ), PPD (10 µg/mℓ) or Con A (2 µg/mℓ) for 3 days. The proliferative responses were assessed by measuring the uptake of tritiated thymidine.
In the above, CPM means the measured number of count per minute; MBP means myelin basic protein; PPD means a purified protein derivative; and Con A means concanavalin A.

[6] = tested on: mouse; conditions: in mouse, intravenous; cited from earlier work

For C[C@H](N)C(=O)N[C@@H]1[C@H]2C(=C(O)C[C@@H](O)[C@@H]2O)C(=O)O[C@]1(C)C(Cl)Cl [Bactobolin, bactobolin], the “Paralysis score (±SD)” value ([1]; 0.5 mg/Kg i.p. daily, Day 1-8 (induction phase), sum of the scores daily estimated during the disease) was 0 ± 0, the “Incidence of EAE Number of animals affected/Number of animals tested” value ([1]; Day 1-8 (induction phase)) was 0/5 and the “Incidence of EAE Number of animals affected/Number of animals tested” value ([1]; Day 1-8 (induction phase), listed as bactobolin) was “none of the rats developed EAE”. For the same molecule, the “Histologic score (±SD)” value [1] was 0.5 ± 0.6, the “Histologic score (±SD)” value ([1]; listed as bactobolin) was “suppresses histologic EAE markedly” and the “Paralysis score (±SD)” value ([2]; 0.5 mg/Kg i.p., effector phase, Day 8-14, sacrificed on Day 15 P.I.) was 0 ± 0. The “Incidence of EAE (number of animals affected number of animals tested)” value ([2]; 0.5 mg/Kg i.p., effector phase, Day 8-14 after the immunization) was “suppressed the incidence of EAE markedly and 0/5”, the “Histologic score (±SD)” value [2] was 0.1 ± 0.1 and the “Histologic score (±SD)” value ([2]; listed as bactobolin) was “suppressed histologic lesion markedly”. For the same molecule, the “Paralysis score (±SD)” value [3] was 4.6 ± 1.2, the “Whole duration of illness (days ± SD)” value [3] was 4.4 ± 1.0 days and the “Paralysis score (±SD)” value ([3]; listed as bactobolin) was “suppressed significantly”. The “Whole duration of illness (days ± SD)” value ([3]; listed as bactobolin) was “no substantial influences were observed”, the “Paralysis score (±SD)” value ([4]; recipients administered Day 1 to Day 8 P.I.) was 0 ± 0 and the “Incidence of EAE (days ± SD)” value ([4]; recipients of 2x10^7 precultured spleen cells, administered Day 1 to Day 8 P.I.) was “suppressed the incidence of passively induced EAE markedly and 0/2”. The “CPM ± SD (uptake of tritiated thymidine)” value ([5]; Con A (2 µg/mℓ), 0.5mg/kg i.p. daily Day 1-8 P.I., cells taken 11 days after sensitization, cultured 3 days) was “suppressed”, the “lymphocyte proliferative responses to specific antigen” value ([5]; lymph node cells of the bactobolin-administered group, Day 11, result in words) was “No lymphocyte proliferative responses to specific antigen were observed” and the “acute LD50 toxicity” value [6] was 6.25 to 12.5 mg/kg.
